Results published in US8865659B2, “Compositions for prevention or treatment of Hepatitis C virus containing ginsenoside Rg3 as an active ingredient” (priority 2012, dated 2014).

Columns and labels:
[1] = tested on: Huh 7.5.1 cells infected with JFH-1 virus; test: Microscopic identification of virus suppression effect (cell shape, phase contrast microscope); format: cell-based; settings: 100 μM, JFH-1 infected
Protocol: About 200,000 Huh 7.5.1 cells were added to a 60×15 mm cell culture dish and every 100 μM of seven ginsenosides (Ro, Re, Rg1, Rg2, Rg3, Rh1, Rh2) per 60×15 mm cell culture dish each was treated. Since it was necessary for ginsenosides in powder formulation to make solutions for the experiments, 50 mM basic concentration solutions for the seven ginsenosides each were prepared and the basic solutions were refrigerated at 4° C. until they were needed.
Non-treatment group (Control), Non-treatment group and DMSO 10 μl treatment group (Control+DMSO 10 μl), JFH-1 virus treatment group (Only JFH-1), JFH-1 virus and DMSO 10 μl treatments group (JFH-1+DMSO 10 μl), JFH-1 virus and Ro 100 uM treatments group (JFH-1+Ro 100 uM), JFH-1 virus and Re 100 uM treatments group (JFH-1+Re 100 uM), JFH-1 virus and Rg1 100 uM treatments group (JFH-1+Rg1 100 uM), JFH-1 virus and Rg2 100 uM treatments group (JFH-1+Rg2 100 uM), JFH-1 virus and Rg3 100 uM treatments group (JFH-1+Rg3 100 uM), JFH-1 virus and Rh1 100 uM treatments group (JFH-1+Rh1 100 uM), JFH-1 virus and Rh2 100 uM treatments group (JFH-1+Rh2 100 uM), JFH-1 virus and Rg1 100 uM treatments group (JFH-1+Rg1 100 uM).
(§1) The experiment was carried out as follow. First, 200,000 Huh 7.5.1 cells were placed in a 60×15 mm cell culture dish. Next day, Japanese Fulminant Hepatitis-1 virus (JFH-1) stock vial which was stored in −70° C. refrigerator was taken out and thawed out in a container filled with ice-water. The culture medium was collected from the cultured 60×15 mm cell culture dish, washed with 1×PBS and collected, again. 1.5 ml of JFH-1 virus solution per 60×15 mm cell culture dish each was added. The dish was shaken to cover the surface sufficiently. The dish was laid in a 5% CO2 incubator at 37° C. for 6 hours and after that, the supernatant was draw out. 1×PBS was spread on the cell surface as slow as possible and after one time washing, cells were collected. 5 ml of cell culture media was added to control and JFH-1 treatments groups. At the last step of virus-infection, 5 ml CM and each […] of ginsenosides which was set to 50 mM concentration were added to the cell culture media. After that, the cell culture media was laid in a 5% CO2 incubator at 37° C. After 72 hours, the following steps were carried out.
As described in the above Example 3, each 100 μM of seven ginsenosides (Ro, Re, Rg1, Rg2, Rg3, Rh1, Rh2) was treated to Huh 7.5.1 cells. After 24 hours and 72 hours, the shapes of Huh 7.5.1 cells were observed using a phase contrast microscope (ECLIPSE TE300, Nicon) of 400× magnifications.

[2] = tested on: HCV CORE; test: Western blotting against HCV CORE in JFH-1 infected Huh 7.5.1 cells; format: cell-based, Hepatitis C virus (JFH-1)
Protocol: as §1
As described in the above Example 3, the Huh 7.5.1 cells were treated with each 100 μM of seven ginsenosides (Ro, Re, Rg1, Rg2, Rg3, Rh1, Rh2). After 72 hours, a western blotting analysis was carried out for analyzing virus suppression effect against HCV CORE and cleaved PARP.
Specific western blotting analysis carried out was as follow. First, the above described samples were prepared, mixed with a sample buffer in tubes and heated at 100° C. for 10 minutes. The tubes were cooled on ice and centrifuged. The electrophoresis was carried out with the above samples and molecular weight markers, and then they were transferred to a PVDF membrane (hydrophobic). After blocking with 5% skin milk for an hour, each primary antibody was added. After staying overnight at 4° C., washings three times for every 10 minutes were conducted, and the blocking was carried out with 5% skin milk for an hour at the room temperature. After that, each secondary antibody was added, and the reaction for an hour and washing three times for every 10 minutes were conducted. Then, the membrane was stained by 1:1 mix with detection reagents A (Luminol Enhancer solution) and B (Peroxide solution) and developed with X ray film.
To examine the dose-dependent anti-virus effect of ginsenoside Rg3, western blotting analysis against cleaved PARP and HCV CORE were carried out with the samples of ginsenosides Rg3 treatment concentration at 10 μM, 25 μM, 50 μM and 100 μM each.
To examine the dose-dependent anti-virus effect of ginsenoside Rh2, western blotting analysis against cleaved PARP and HCV CORE were carried out with the samples of ginsenosides Rh2 treatment concentration at 10 μM, 25 μM and 50 μM each. […]

SMILES: CC(C)=CCC[C@](C)(O)[C@H]1CC[C@]2(C)[C@@H]1[C@H](O)C[C@@H]1[C@@]3(C)CC[C@H](O[C@@H]4O[C@H](CO)[C@@H](O)[C@H](O)[C@H]4O[C@@H]4O[C@H](CO)[C@@H](O)[C@H](O)[C@H]4O)C(C)(C)[C@@H]3CC[C@]12C [ginsenoside Rg3]
- shapes of Huh 7.5.1 cells ([1]; 24 hours after treatment): fuses cells
- shapes of Huh 7.5.1 cells ([1]; 72 hours after treatment): fuses cells
- virus suppression effect (HCV CORE), dose dependence ([2]; 10 μM, 25 μM, 50 μM and 100 μM): dose-dependent manner
- HCV CORE ([2]; 100 μM, 72 hours): remarkably decreased
- anti-virus effect compared with interferon ([2]; comparison with PegIFN alpha-2b): same anti-virus effect as the interferon therapeutics
